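Compound exposure: 48 hours, 5 concentrations, 96-well plates. GI50: concentration for 50% inhibition of growth.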 The source made the active and inactive calls. No stated cut-off is given here; in the data, active = GI50 up to about 1.1 µM and inactive = higher.
How the values were obtained:
Test in all cases: NCI anticancer screen, dose series, 48 h
[1] = test system: 786-0
[2] = test system: RXF 393
[3] = test system: RPMI-8226
[4] = test system: NCI-H226
[5] = test system: HL-60
[6] = test system: BT-549
[7] = test system: IGROV-1
[8] = test system: MDA-MB-231
[9] = test system: HCT-15
[10] = test system: SK-MEL-2
[11] = test system: OVCAR-3
[12] = test system: SF-268
[13] = test system: NCI-H23
[14] = test system: SW-620
[15] = test system: MOLT-4
[16] = test system: SR
[17] = test system: SN12C
[18] = test system: MCF7
[19] = test system: HCC 2998
[20] = test system: SF-539
[21] = test system: TK-10
[22] = test system: HOP-92
[23] = test system: SK-MEL-5
[24] = test system: Hs-578T
[25] = test system: NCI-H522
[26] = test system: EKVX
[27] = test system: Malme-3M
[28] = test system: A549
[29] = test system: HCT-116
[30] = test system: SK-OV-3
[31] = test system: M14
[32] = test system: OVCAR-8
[33] = test system: MDA-MB-435
[34] = test system: HOP-62
[35] = test system: U-251
[36] = test system: NCI/ADR-RES
[37] = test system: SNB-19
[38] = test system: PC-3
[39] = test system: NCI-H460
[40] = test system: SF-295
[41] = test system: CAKI-1
[42] = test system: SK-MEL-28
[43] = test system: OVCAR-5
[44] = test system: CCRF-CEM
[45] = test system: MDA-N
[46] = test system: UO-31
[47] = test system: COLO 205
[48] = test system: UACC-62
[49] = test system: UACC-257
[50] = test system: A498
[51] = test system: K562
[52] = test system: ACHN
[53] = test system: DU-145
[54] = test system: HT-29
[55] = test system: LOX IMVI

Measured: GI50

CC(C)(C)C1CCC2c3c([nH]c4ccccc34)C3C(=O)N(c4ccc(C(=O)O)cc4)C(=O)C3C2C1 (stereo not given)
12 µM: [9]
active: [15] 0.1 µM | [34] 0.1 µM
inactive: [1] 15.7 µM | [2] 10.9 µM | [3] 20 µM | [4] 20.9 µM | [5] 4.52 µM | [6] 14.5 µM | [7] 18.5 µM | [8] 15.5 µM | [10] 14.9 µM | [11] 12.4 µM | [12] 14.2 µM | [13] 17.7 µM | [14] 13.6 µM | [16] 25 µM | [17] 12.8 µM | [18] 11 µM | [19] 15.6 µM | [20] 17.2 µM | [21] 17.5 µM | [22] 11.2 µM | [23] 13.1 µM | [24] 17.6 µM | [25] 18.9 µM | [26] 22 µM | [27] 14.9 µM | [28] 12.2 µM | [29] 14.4 µM | [30] 17.5 µM | [31] 16.8 µM | [32] 12 µM | [33] 2.96 µM | [35] 13.4 µM | [36] 16.7 µM | [37] 16.8 µM | [38] 13.4 µM | [39] 16.3 µM | [40] 10.1 µM | [41] 16.7 µM | [42] 11.3 µM | [43] 21.9 µM | [44] 3.69 µM | [45] 11.9 µM | [46] 16.8 µM | [47] 19 µM | [48] 14.2 µM | [49] 13.9 µM | [50] 18.2 µM | [51] 4.43 µM | [52] 11.7 µM | [53] 17.5 µM | [54] 12.9 µM | [55] 14.5 µM

— ChEMBL document CHEMBL1201862, “PubChem BioAssay data set” (2004)
